Measurements published in patent US20250195502A1, “APPLICATION OF TETRACYCLIC COMPOUND IN TREATMENT OF TUMORS” (SHANGHAI SHIJIANG BIOTECHNOLOGY CO., LTD, priority 2022, published 2025).
Like-named read-outs stand apart in the source and are kept apart here.

Tests used:
Type in all cases: cell-based
[1] = system: NCI-H82 (human small cell lung cancer cell); test: Cell viability assay (Promega CellTiter-Glo), inhibitory effect on NCI-H82; details: 72 h, 3 days of culture
Summary of the method: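 After 3 days of culture with graded compound doses, ATP-based luminescence (CellTiter-Glo) gave the viability of human small cell lung cancer NCI-H82 cells, maintained in 10% FBS-containing RPMI1640. IC50 is the 50% inhibiting concentration.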

[2] = system: SW48 (human colon adenocarcinoma cell); test: Cell viability assay (Promega CellTiter-Glo), inhibitory effect on SW48; details: 72 h, 3 days of culture
Summary of the method: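 IC50 derived from CellTiter-Glo ATP luminescence after 3-day culture with a compound dilution series; cells kept in Leibovitz's L-15 plus 10% fetal bovine serum.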

[3] = system: G-401 (human renal carcinoma Wilms cell); test: Cell viability assay (Promega CellTiter-Glo), inhibitory effect on G-401; details: 72 h, 3 days of culture
Summary of the method: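 IC50 comes from luminescent ATP-based viability measured after 3 days of exposure to serially diluted compound. Cultures were kept in McCoy's 5a medium containing 10% fetal bovine serum.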

[4] = system: MDA-MB-453 (breast cancer cell); test: Cell viability assay (Promega CellTiter-Glo), inhibitory effect on MDA-MB-453; details: Homo sapiens, 72 h, 3 days of culture
Summary of the method: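 IC50 comes from ATP-based CellTiter-Glo viability measured after 3 days of exposure to graded compound concentrations. Cultures were kept in L-15 medium containing 10% fetal bovine serum.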

[5] = system: CFPAC-1 (human pancreatic cancer cell); test: Cell viability assay (Promega CellTiter-Glo), inhibitory effect on CFPAC-1; details: 72 h, 3 days of culture
Summary of the method: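 Viability readout via ATP content (CellTiter-Glo) after 3-day exposure to gradient-diluted compounds; IC50 reported. Cells: CFPAC-1, grown in IMDM plus 10% fetal bovine serum.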

[6] = system: 786-O (clear cell renal cell adenocarcinoma cell); test: Cell viability assay (Promega CellTiter-Glo), inhibitory effect on 786-O; details: Homo sapiens, 786-0, 72 h, 3 days of culture
Summary of the method: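 Cell viability determined from ATP content (CellTiter-Glo) after 3-day exposure to compound dilution series, giving IC50. Cells: 786-O clear cell renal adenocarcinoma line in 10% FBS-containing RPMI1640 (+P/S).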

[7] = system: SF126 (human glioblastoma multiforme cell); test: Cell viability assay (Promega CellTiter-Glo), inhibitory effect on SF126
Summary of the method: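 IC50 reflects 50% loss of CellTiter-Glo ATP signal in SF126 glioblastoma cells. Cells were cultured in 10% FBS-containing EMEM and treated with serially diluted compound for 3 days.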

[8] = system: GB-1 (human brain glioblastoma cell); test: Cell viability assay (Promega CellTiter-Glo), inhibitory effect on GB-1; details: 72 h, 3 days of culture
Summary of the method: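 Intracellular ATP measured by CellTiter-Glo served as the viability readout for IC50, taken 3 days after adding gradient-diluted compound. Cells were kept in 10% FBS-containing DMEM.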

[9] = system: Kelly (brain neuroblastoma cell); test: Cell viability assay (Promega CellTiter-Glo), inhibitory effect on Kelly; details: Homo sapiens, 72 h, 3 days of culture, read-out: inhibitory effect on brain cell line Kelly (IC50)
Summary of the method: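 Kelly cells were cultured in RPMI1640 with 10% FBS and 2 mM glutamine, then treated with serially diluted compounds for 3 days. Viability was measured as intracellular ATP by CellTiter-Glo luminescence, and IC50 was derived from the dose-response.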

[10] = system: NB-1 (brain neuroblastoma cell); test: Cell viability assay (Promega CellTiter-Glo), inhibitory effect on NB-1; details: Homo sapiens, 72 h, 3 days of culture, read-out: inhibitory effect on brain cell line NB-1 (IC50)
Summary of the method: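 NB-1 cells grown in L-15 medium with 10% FBS were exposed to serially diluted compounds for 3 days after passage. Viability was read as intracellular ATP by CellTiter-Glo luminescence. IC50 was taken as the concentration giving 50% inhibition.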

[11] = system: D341 Med (cerebellar medulloblastoma cell); test: Cell viability assay (Promega CellTiter-Glo), inhibitory effect on D341 Med; details: Homo sapiens, 72 h, 3 days of culture, read-out: inhibitory effect on brain cell line D341 Med (IC50)
Summary of the method: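 D341 Med cells grown in EMEM with 20% FBS (+P/S) were treated with serially diluted compounds after passage. Viability after 3 days of culture was read as intracellular ATP by CellTiter-Glo luminescence, and IC50 was derived.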

[12] = system: Con-NCI-H82 cell (NCI-H82 transfected with empty virus vector); test: Cell viability assay (Promega CellTiter-Glo), inhibitory effect on Con-NCI-H82 cell; details: Homo sapiens; NCI-H82 transfected with empty virus vector (control); CellTiter-Glo; read-out: inhibitory effect on Con-NCI-H82 (IC50)
Summary of the method: (§1)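 Viability measured by CellTiter-Glo in three NCI-H82 variants: empty-vector control, viral NNMT overexpression, and viral shRNA DNMT1 knockdown, each checked by Western blot.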

[13] = system: ov-NNMT NCI-H82 cell (NNMT protein-overexpressing NCI-H82); test: Cell viability assay (Promega CellTiter-Glo), inhibitory effect on ov-NNMT NCI-H82 cell; details: Homo sapiens
Summary of the method: as §1

[14] = system: sh-DNMT1 NCI-H82 cell (DNMT1 knocked down NCI-H82); test: Cell viability assay (Promega CellTiter-Glo), inhibitory effect on sh-DNMT1 NCI-H82 cell; details: Homo sapiens, NCI-H82 with DNMT1 knocked down by shRNA
Summary of the method: as §1

[15] = 72 h, SF-126, 3 days of culture, Table 3, read-out: inhibitory effect on SF-126 (IC50)
[16] = SF-126, 72 h, SF126, 3 days of culture, Table 4, read-out: inhibitory effect on brain cell line SF126 (IC50)
[17] = Table 3, read-out: inhibitory effect on GB-1 (IC50)
[18] = Table 4, read-out: inhibitory effect on brain cell line GB-1 (IC50)

SMILES	IC50 [1] [µM]	IC50 [2] [µM]	IC50 [3] [µM]	IC50 [4] [µM]	IC50 [5] [µM]	IC50 [6] [µM]	IC50 [7, 15] [µM]	IC50 [7, 16] [µM]	IC50 [8, 17] [µM]	IC50 [8, 18] [µM]	IC50 [9] [µM]	IC50 [10] [µM]	IC50 [11] [µM]	IC50 [12] [µM]	IC50 [13] [µM]	IC50 [14] [µM]
COc1ccc2cc3[n+](cc2c1OCC(=O)/C=C/c1ccc(C)cc1)CCc1cc2c(cc1-3)OCO2 [compound AB31790]	0.43	0.42	0.82	0.91	7.82	4.75	3.26	3.26	3.73	3.73	0.27	0.23	0.26	0.43	1.52	1.39
COc1ccc2cc3[n+](cc2c1OCCCCCCNC(=O)OC(C)(C)C)CCc1cc2c(cc1-3)OCO2 [compound AB31808]	0.33	0.39	0.48	0.28	7.32	3.9	4.58	4.58	5.56	5.56	1.05	0.06	0.43	0.33	0.86	1.04
COc1ccc(CCCc2c3[n+](cc4c(OC)c(OC)ccc24)CCc2cc4c(cc2-3)OCO4)cc1 [compound AB31809]	0.44	0.56	0.53	0.87	15.5	7.88	10.1	10.1	11.8	11.8	0.99	0.16	1.92	0.44	1.38	1.86

Further lines, results first:

IC50 [1] [µM]	IC50 [2] [µM]	IC50 [3] [µM]	IC50 [4] [µM]	IC50 [5] [µM]	IC50 [6] [µM]	IC50 [7, 15] [µM]	IC50 [7, 16] [µM]	IC50 [8, 17] [µM]	IC50 [8, 18] [µM]	IC50 [9] [µM]	IC50 [10] [µM]	IC50 [11] [µM]	IC50 [12] [µM]	IC50 [13] [µM]	IC50 [14] [µM]	SMILES
0.3	0.56	0.26	0.31	4.51	2.98	3.77	3.77	3.22	3.22	0.46	0.21	0.51	0.3	0.85	1.05	COc1ccc2c(Cc3ccc(C(C)C)cc3)c3[n+](cc2c1OC)CCc1cc2c(cc1-3)OCO2 [compound AB31789]
2.11	1.35	1.84	4.11	> 50	25.8	> 50	> 50	> 50	> 50	4.82	1.03	4.8	2.11	4.82	6.04	COc1ccc2c(Cc3ccc(C(F)(F)F)cc3)c3[n+](cc2c1OC)CCc1cc2c(cc1-3)OCO2 [compound AB31805]
